According to patent US10041937B2, “Macrophage identification agent, and identification method, sorting method, evaluation method, screening method and kit using the macrophage identifier agent” (CANON KABUSHIKI KAISHA, priority 2013, dated 2018):

Columns and labels:
[1] = tested on: M1 macrophages and M2 macrophages; assay: Analysis of export inhibition of the identification agent by a test substance (FTC, MK-571, DIDS); assay type: cell-based, mouse
Method: Besides, Fumitremorgin C (manufactured by Sigma-Aldrich, hereinafter referred to as FTC) was added thereto, as a substance for inhibiting export of the compound (1) having been imported into cells, to a concentration of 10 μM, and the resultant was incubated at 37° C. for 30 minutes. Thereafter, the tube was centrifuged at 180 G for 10 minutes to remove the supernatant, and then, 1 mL of a HBSS buffer containing the FTC in a concentration of 10 μM was added thereto to suspend the cells, and the resultant was further incubated at 37° C. for 30 minutes.
Furthermore, each tube was centrifuged at 180 G for 10 minutes to remove the supernatant, the cells were suspended by adding the dye aqua for identifying dead cells thereto, and the resultant was incubated at 4° C. for 10 minutes. Thereafter, the tube was centrifuged at 180 G for 10 minutes to remove the supernatant, and then, the cells were suspended in a FACS buffer and analyzed by using a FACSCanto (trademark) II flow cytometry apparatus manufactured by BD.
The analysis was performed on a cell population showing a low signal for the aqua, so as to analyze a cell population from which dead cells were eliminated.
The analysis was performed in the same manner as in Example 57 except that the FTC was not added.
Thereafter, the tube was centrifuged at 180 G for 10 minutes to remove the supernatant, and then, 1 mL of a HBSS buffer containing the MK-571 in a concentration of 10 μM was added thereto to suspend the cells, and the resultant was further incubated at 37° C. for 30 minutes.
The analysis was performed in the same manner as in Example 79 except that the MK-571 was not added. […] The degree of the enhancement of the peak intensity caused by adding the MK-571 was evaluated by calculating the resolution R described above by using peak intensities in histograms prepared with and without adding the MK-571.
Thereafter, the tube was centrifuged at 180 G for 10 minutes to remove the supernatant, and then, 1 mL of a HBSS buffer containing the DIDS in a concentration of 10 μM was added thereto to suspend the cells, and the resultant was further incubated at 37° C. for 30 minutes.

[2] = tested on: M1 macrophages and M2 macrophages differentiated from mouse bone marrow cells; assay: Subtype identification by staining and flow cytometry of M1 and M2 macrophages differentiated from mouse bone marrow cells; assay type: cell-based, Balb/c mouse; settings: for Resolution ratio R: M1 vs M2 macrophages from mouse bone marrow cells; for Evaluation of macrophage subtype identification: class based on resolution R; for Peak position of M1 macrophage: mouse bone marrow-derived M1 macrophages; for Peak position of M1 macrophage / Peak position of M2 macrophage: channel listed per compound; for Peak position of M2 macrophage: mouse bone marrow-derived M2 macrophages
Summary of the method: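 Balb/c mouse bone marrow cells were differentiated to macrophages with 50 ng/mL M-CSF over two 3–4-day periods, then polarized for 3 days to M1 (interferon-γ plus polyliposaccharide) or M2 (IL-4). Live cells (aqua dye-negative) were analysed by flow cytometry; resolution R = |FM1−FM2|/(WM1+WM2) from histogram peak positions and widths indexed subtype discrimination.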

[3] = tested on: M1 macrophages and M2 macrophages differentiated from RAW264.7 cells; assay: Identification of macrophage subtypes differentiated from mouse cell line RAW264.7; assay type: cell-based; settings: RAW264.7 derived M1 and M2
Method: The subtypes were identified by using the compound (1) in the same manner as in Example 1 except that the macrophage subtypes differentiated from the mouse bone marrow cells were changed to macrophage subtypes differentiated from a cell line established from mouse monocytic leukemia.
The culture of subtypes was performed with reference to NPL 9. Specifically, RAW264.7 cells purchased from American Type Culture Collection, that is, a cell line established from mouse monocytic leukemia, were subcultured several times, and the resultant cells were dispersed to a concentration of 3.3×10^4/mL in a D-MEM containing 10% FBS, 1% P/S and 1% MEM-NEAA, and 3.3×10^5 cells were seeded in a 100 mm dish. The cells were grown by incubation performed in the presence of 5% CO2 at 37° C. After 2 to 4 days, it was confirmed that an area of about to 70% of the bottom of the dish had been covered by the cells, the medium was then exchanged, and by adding 200 ng of interferon-γ and 1 μg of polyliposaccharide (both manufactured by Pepro Tech) to the medium, the cells were differentiated to the subtype M1. Besides, by adding 100 ng of IL-4, the cells were differentiated to the subtype M2. […]
A histogram was prepared by plotting fluorescence intensity obtained in the FITC channel on the abscissa and plotting the number of cells at each fluorescence intensity on the ordinate, which is shown in FIG. 9.

[4] = tested on: M1 macrophages and M2 macrophages differentiated from THP-1 cells; assay: Identification of macrophage subtypes differentiated from human cell line THP-1; assay type: cell-based; settings: THP-1 derived M1 and M2
Method: The fluorescent signals derived from the compounds (3), (4), (6), (7), (9), (11) to (13), (15), (17), (19) to (26), (28), (30) to (33), (35), (36), (38), (42) to (45), (48) to (62), (65), (67), (74) to (76), (82), (83) and (85) and the comparative compounds (1) and (2) were measured in channels suitable to the respective compounds. Histograms were prepared by plotting fluorescence intensities obtained in the respective channels on the abscissa and plotting the numbers of cells at each fluorescence intensity on the ordinate. A difference between a fluorescence intensity (FM1) at a peak top of the histogram of the M1 macrophage and a fluorescence intensity (FM2) at a peak top of the histogram of the M2 macrophage is divided by a sum of a peak width (WM1) of the histogram of the M1 macrophage and a peak width (WM2) of the histogram of the M2 macrophage, so as to obtain a resolution R, which was used as an index of the identification ability for a subtype (see the following expression (1)). Resolution R=|FM1−FM2|/(WM1+WM2) Expression (1)
Based on the thus obtained values of the resolution R, the identification abilities for the subtypes of the compounds (3), (4), (6), (7), (9), (11) to (13), (15), (17), (19) to (26), (28), (30) to (33), (35), (36), (38), (42) to (45), (48) to (62), (65), (67), (74) to (76), (82), (83) and (85) and the comparative compounds (1) and (2) were evaluated as any of A to C according to the following criteria, and if the resolution R was 0.15 or more, the compound was determined to be good in the subtype identification.
The subtypes were identified by using the compound (1) in the same manner as in Example 1 except that the macrophage subtypes differentiated from the mouse bone marrow cells were changed to macrophage subtypes differentiated from a cell line established from human acute monocytic leukemia.
The culture of subtypes was performed with reference to NPL 10. Specifically, THP-1 cells purchased from JCRB Cell Bank of National Institute of Biomedical Innovation, that is, a cell line established from human acute monocytic leukemia, were subcultured several times, and the resultant cells were dispersed to a concentration of 5.0×10^5/mL in an RPMI1640 containing 10% FBS and 1% P/S, and 5.0×10^6 cells were seeded in a 100 mm dish. The monocytes were differentiated into macrophages by incubating the resultant in the presence of 5% CO2 at 37° C. for 2 days with 500 ng of PMA added thereto. After exchanging the medium, by adding 200 ng of interferon-γ and 1 μg of polyliposaccharide (both manufactured by Pepro Tech) to the medium, the cells were differentiated to the subtype M1. Besides, by adding 200 ng of IL-4 and IL-13, the cells were differentiated to the subtype M2. After incubation performed in the presence of 5% CO2 at 37° C. for 24 hours, the resultant was rinsed with PBS, and PBS containing 0.25% trypsin and 1 mM EDTA (ethylenediaminetetraacetic acid) was used for collecting, from the dish, the macrophages having been differentiated to the subtypes M1 and M2.
Specifically, fluorescent signals derived from the compounds (1) (3) (4) (12) and (15) were measured by using the channels which are appropriate for each of the compounds and the identification abilities for the subtypes of the compounds were evaluated based on the values of the resolution R.

[5] = tested on: mixture of the M1 macrophages and the M2 macrophages; assay: Sorting of subtypes from a mixture of M1 and M2 macrophages with an FACS apparatus; assay type: cell-based, mouse; settings: compound 1 μM
[6] = general formula (10) dyes (Table 8)
[7] = general formula (11) dyes (Table 9)

## CN(C)C(=O)CCSC(SCCC(=O)O)c1cccc(/C=C/c2ccc3ccc(Cl)cc3n2)c1 (stereo not shown) [MK-571]
[1]; M1 macrophages, MK-571 10 μM, compound (113) 1 μM
  degree of the enhancement of the peak intensity (resolution R with and without MK-571): 0.406
[1]; M1 macrophages, MK-571 10 μM, compound (120) 1 μM
  degree of the enhancement of the peak intensity (resolution R with and without MK-571): 0.739
[1]; M2 macrophages, MK-571 10 μM, compound (113) 1 μM
  degree of the enhancement of the peak intensity (resolution R with and without MK-571): 0.438
[1]; M2 macrophages, MK-571 10 μM, compound (120) 1 μM
  degree of the enhancement of the peak intensity (resolution R with and without MK-571): 0.730
[1]; MK-571 10 μM, compound (113) 1 μM
  enhancement of the fluorescence intensity caused by inhibition of export of the compound (113): observed in both the M1 macrophages and the M2 macrophages
[1]; MK-571 10 μM, compound (120) 1 μM
  enhancement of the fluorescence intensity caused by inhibition of export of the compound (120): observed in both the M1 macrophages and the M2 macrophages

## O=S(=O)(O)c1cc(N=C=S)ccc1C=Cc1ccc(N=C=S)cc1S(=O)(=O)O [DIDS, 4,4′-diisothiocyanatostilbene-2,2′-disulfonic acid]
[1]; DIDS 10 μM, compound (139) 1 μM
  enhancement of the fluorescence intensity caused by inhibition of export of the compound (139): observed merely in the M1 macrophages

## CCN(CC)c1ccc2cc(-c3nc4ccccc4s3)c(=O)oc2c1 [compound (129)]
[2]; [6]
  Resolution ratio R: 0.709
  Evaluation of macrophage subtype identification: A (The compound is very good in the subtype identification (namely, the resolution R is 0.5 or more))
  Peak position of M1 macrophage: 31.0
  Peak position of M2 macrophage: 13.0
[3]
  subtype more strongly stained: the M1 macrophages were stained more strongly by the compound (129) than the M2 macrophages
[4]
  subtype more strongly stained: the M1 macrophages were stained more strongly by the compound (129) than the M2 macrophages

## COc1ccc2c3c([nH]c2c1)[C@H](C=C(C)C)N1C(=O)[C@@H]2CCCN2C(=O)[C@@H]1C3 [FTC, Fumitremorgin C]
[1]; FTC 10 μM, compound (1) 1 μM
  enhancement of the fluorescence intensity caused by inhibition of export of the compound (1): observed merely in the M2 macrophages

## CCC1=C(C)C2=C(C)c3c(C)c(CC)c(C)n3[B-](F)(F)[N+]2=C1C [compound (139)]
[2]; [7]
  Resolution ratio R: 1.023
  Evaluation of macrophage subtype identification: A (The compound is very good in the subtype identification (namely, the resolution R is 0.5 or more))
  Peak position of M1 macrophage: 220
  Peak position of M2 macrophage: 47.8
[2]; two compounds used in combination, each 1 μM
  subtype more strongly stained: the M1 macrophages show higher fluorescence intensity in the FITC channel than the M2 macrophages
[4]
  subtype more strongly stained: the M1 macrophages were stained more strongly by the compound (139) than the M2 macrophages
[5]; FACS apparatus
  sorting of identified M1 and M2 macrophages: could be each sorted with an FACS apparatus
[5]; mixed M1 and M2 macrophages
  subtype more strongly stained: staining the M1 macrophages more strongly than the M2 macrophages
